Test results as given in patent US8865664B2, “Hydrophobically enhanced aminoglycosides” (University of Manitoba, priority 2008, dated 2014).
In brackets after ≈: the same amount, converted by molar mass.

Experiments:
[1] = tested on: Gram-positive organisms (ATCC and CAN-ICU strains); experiment: MIC, Gram-positive organisms (compounds ending in A); format: cell-based; conditions: in words; Table 3 organisms
Protocol: (§1) The minimum inhibitory concentrations (MIC) in μg/mL were determined using established methods (Clinical and Laboratory Standards Institute, 2006) and are shown in Table 3 (FIG. 17). Gentamicin, neomycin B and kanamycin A served as positive controls.

[2] = tested on: Gram-negative organisms (ATCC and CAN-ICU strains); experiment: MIC, Gram-negative organisms (compounds ending in A); format: cell-based; conditions: in words; Table 3 organisms
Protocol: as §1

[3] = tested on: methicillin-resistant S. aureus (MRSA) ATCC 33592; experiment: MIC, antibiotic susceptibility testing, MRSA; format: cell-based, Staphylococcus aureus; conditions: for fold enhancement against MRSA when compared to neomycin: vs neomycin
Protocol: (§2) Standard reference antibiotic susceptibility testing methods (NCCLS[CLS] (Clinical and Laboratory Standards Institute, 2006)) agar or dilutional methods was used to assess the activity of all prepared antimicrobials. Compounds were tested against Gram-positive strains including S. aureus, methicillin-resistant S. aureus (MRSA), S. epidermidis, methicillin-resistant S. epidermidis (MRSE) and S. pneumoniae as well as Gram-negative strains E. coli, gentamycin resistant E. coli and P. aeruginosa. Gentamycin and neomycin served as positive controls. MIC values defined as the lowest concentration of antimicrobial agent which inhibits the development of visible growth after 24 h at 37° C. was determined.
as §1

[4] = tested on: P. aeruginosa (ATCC 27853); experiment: MIC, P. aeruginosa (compounds 13-31); format: cell-based, Pseudomonas aeruginosa; conditions: in words; among neomycin-lipid conjugates
Protocol: as §2

[5] = tested on: Microorganisms from ATCC and CAN-ICU; experiment: MIC, all investigated bacteria (compounds ending in A); format: cell-based; conditions: in words; vs 4A
Protocol: as §1

[6] = tested on: E. coli (ATCC 25922); experiment: MIC, E. coli (compounds 13-31); format: cell-based; conditions: in words
Protocol: as §2

[7] = tested on: gentamycin resistant E. coli (ATCC 6174); experiment: MIC, gentamycin resistant E. coli (compounds 13-31); format: cell-based; conditions: in words
Protocol: as §2

[8] = tested on: methicillin-resistant S. epidermidis (MRSE) (ATCC 14990); experiment: MIC, antibiotic susceptibility testing, MRSE (compounds 13-31); format: cell-based, Staphylococcus epidermidis; conditions: vs kanamycin A
Protocol: as §2

[9] = tested on: MRSA; conditions: fatty acid against MRSA; cited from earlier work
[10] = tested on: MSSA (methicillin-susceptible S. aureus); conditions: fatty acid against MSSA; cited from earlier work

In the case of “1,3,2′,6′,2′″,6′″-Hexaammonium-6,3′,4′,2″,5″,4′″-hexa-β-phenylcarbamoyl-5″-hexadecanoyl-5″-deoxy-neomycin-hexafluoroacetate [Compound 7A]”, the Gram-positive antibacterial activity [1] is reported as “poor” and the Gram-negative activity [2] is reported as “poor”.

For “1,3,2′,6′,2′″,6″-Hexaammonium-5″-deoxy-5″-N-(hexadecanoyl)-neomycin hexakis(trifluoroacetate) [Compound 15]”, the “fold enhancement against MRSA when compared to neomycin” value ([3]; MRSA) was 32 fold.

With “1,3,2′,6′,2′″,6″-Hexaammonium-5″-deoxy-5″-N-(nonadecanoyl)-neomycin hexakis(trifluoroacetate) [Compound 16]” the “fold enhancement against MRSA when compared to neomycin” value ([3]; MRSA) was 32 fold and the “antimicrobial activity against P. aeruginosa” value [4] was “optimal”.

For “1,3,2′,6′-Tetraammonium-4,5,3′,4′-tetra-O-phenylcarbamoyl-neamine-tetrafluoroacetate [Compound 17A]”, the Gram-positive antibacterial activity [1] was “reduced” and the Gram-negative activity [2] was “higher”.

With “1,3,6′,3″-Tetraammonium-5,2′,4′,2″,3″,4″-hexa-O-phenylcarbamoyl-6″ hexadecanoyl-6″-deoxy-kanamycin-tetrafluoroacetate [Compound 14A]” the Gram-positive antibacterial activity [1] was “poor” and the Gram-negative activity [2] was “poor”.

In the case of “1,3,6′,3″-Tetraammonium-5,2″,4″,6″,2′″,3′″,4′″-hepta-β-phenylcarbamoyl-6″-deoxy-kanamycin-tetrafluoroacetate [Compound 11A]”, the Gram-positive antibacterial activity [1] is reported as “reduced” and the Gram-negative activity [2] is reported as “poor”.

With “3,6′,3″,1′″-Tetraammonium-5,2′,4′,2″,3″,4″-hexa-O-phenylcarbamoyl-6″-deoxy-amikacin-tetrafluoroacetate [Compound 20A]” the Gram-positive antibacterial activity [1] was “reduced” and the Gram-negative activity [2] was “poor”.

With “4,3′,4′,2″,5″3′″,4″-Hexa-O-phenylcarbamoyl-1,3,2′,6′,2′″,6′″-hexa-N-(guanidinyl)-5″-deoxy-neomycin-hexafluoroacetate [Compound 9A]” the “antibacterial activity when compared to 4A” value [5] was “slightly reduced”.

For CCCCCC(=O)NCC1OC(OC2C(O)C(N)CC(N)C2OC2OC(CN)C(O)C(O)C2N)C(O)C1OC1OC(CN)C(O)C(O)C1N.O=C(O)C(F)(F)F.O=C(O)C(F)(F)F.O=C(O)C(F)(F)F.O=C(O)C(F)(F)F.O=C(O)C(F)(F)F.O=C(O)C(F)(F)F (stereo not drawn) [Compound 13, 1,3,2′,6′,2′″,6″-Hexaammonium-5″-deoxy-5″-N-(hexanoyl)-neomycin hexakis(trifluoroacetate)], the “activity against E. coli relative to the C16- or C20-lipid conjugates” value [6] was “stronger activity” and the “activity against gentamycin-resistant E. coli relative to the C16- or C20-lipid conjugates” value [7] was “stronger activity”.

In the case of CCCCCCCCCCCCCCCC(=O)NCC1OC(OC2C(N)CC(N)C(OC3OC(CN)C(O)C(O)C3O)C2O)C(O)C(N)C1O.O=C(O)C(F)(F)F.O=C(O)C(F)(F)F.O=C(O)C(F)(F)F.O=C(O)C(F)(F)F (stereo not drawn) [Compound 30, 1,3,6′,3″-Tetraammonium-6″-deoxy-6″-N-(hexadecanoyl)-kanamycin-tetrakis-(trifluoroacetate)], the “fold enhancement in antimicrobial activity against MRSA when compared to unmodified kanamycin A” value ([3]; MRSA, vs kanamycin A) is reported as 35 fold and the “fold enhancement in antimicrobial activity against MRSE when compared to unmodified kanamycin A” value [8] is reported as 56 fold.

In the case of CCCCCCCCCCCC(=O)O [lauric acid], the MIC [9] is given as 400 µg/mL (≈ 2000 µM) and the MIC [10] is given as 400 µg/mL (≈ 2000 µM).

In the case of neomycin [reference compound], the MIC ([3]; against MRSA, 24 h at 37° C.) is reported as roughly 8 µg/mL.
